Source: ChEMBL document CHEMBL1142897, “Synthesis, characterization and antimicrobial activity of Fe(II), Zn(II), Cd(II) and Hg(II) complexes with 2,6-bis(benzimidazol-2-yl) pyridine ligand” (2007)

Columns and labels:
[1] = tested on: Mycolicibacterium smegmatis; experiment: Antibacterial activity against Mycobacterium smegmatis after 72 hrs by disk diffusion method; format: functional
[2] = tested on: Escherichia coli; experiment: Antibacterial activity against Escherichia coli after 72 hrs by disk diffusion method; format: functional
[3] = tested on: Pseudomonas aeruginosa; experiment: Antibacterial activity against Pseudomonas aeruginosa after 72 hrs by disk diffusion method; format: functional
[4] = tested on: Klebsiella pneumoniae; experiment: Antibacterial activity against Klebsiella pneumoniae after 72 hrs by disk diffusion method; format: functional
[5] = tested on: Listeria monocytogenes; experiment: Antibacterial activity against Listeria monocytogenes after 72 hrs by disk diffusion method; format: functional
[6] = tested on: Proteus vulgaris; experiment: Antibacterial activity against Proteus vulgaris after 72 hrs by disk diffusion method; format: functional
[7] = tested on: Micrococcus luteus; experiment: Antibacterial activity against Micrococcus luteus after 72 hrs by disk diffusion method; format: functional
[8] = tested on: Staphylococcus aureus; experiment: Antibacterial activity against Staphylococcus aureus after 72 hrs by disk diffusion method; format: functional
[9] = tested on: Bacillus cereus; experiment: Antibacterial activity against Bacillus cereus after 72 hrs by disk diffusion method; format: functional
[10] = tested on: Rhodotorula mucilaginosa; experiment: Antifungal activity against Rhodotorula rubra after 24 hrs by disk diffusion method; format: functional
[11] = tested on: Debaryomyces hansenii; experiment: Antifungal activity against Debaryomyces hansenii after 24 hrs by disk diffusion method; format: functional
[12] = tested on: Kluyveromyces marxianus; experiment: Antifungal activity against Kluyveromyces fragilis after 24 hrs by disk diffusion method; format: functional
[13] = tested on: Candida albicans; experiment: Antifungal activity against Candida albicans after 24 hrs by disk diffusion method; format: functional
[14] = tested on: Hanseniaspora guilliermondii; experiment: Antifungal activity against Hanseniaspora guilliermondii after 24 hrs by disk diffusion method; format: functional
[15] = tested on: Listeria monocytogenes; experiment: Antibacterial activity against Listeria monocytogenes after 24 hrs by dilution method; format: functional, organism-based
[16] = tested on: Escherichia coli; experiment: Antibacterial activity against Escherichia coli after 24 hrs by dilution method; format: functional, organism-based
[17] = tested on: Micrococcus luteus; experiment: Antibacterial activity against Micrococcus luteus after 24 hrs by dilution method; format: functional, organism-based
[18] = tested on: Bacillus cereus; experiment: Antibacterial activity against Bacillus cereus after 24 hrs by dilution method; format: functional, organism-based
[19] = tested on: Mycolicibacterium smegmatis; experiment: Antibacterial activity against Mycobacterium smegmatis after 24 hrs by dilution method; format: functional, organism-based
[20] = tested on: Proteus vulgaris; experiment: Antibacterial activity against Proteus vulgaris after 24 hrs by dilution method; format: functional, organism-based
[21] = tested on: Staphylococcus aureus; experiment: Antibacterial activity against Staphylococcus aureus after 24 hrs by dilution method; format: functional, organism-based
[22] = tested on: Klebsiella pneumoniae; experiment: Antibacterial activity against Klebsiella pneumoniae after 24 hrs by dilution method; format: functional, organism-based
[23] = tested on: Pseudomonas aeruginosa; experiment: Antibacterial activity against Pseudomonas aeruginosa after 24 hrs by dilution method; format: functional, organism-based
[24] = tested on: Hanseniaspora guilliermondii; experiment: Antifungal activity against Hanseniaspora guilliermondii after 24 hrs by dilution method; format: functional, organism-based
[25] = tested on: Rhodotorula mucilaginosa; experiment: Antifungal activity against Rhodotorula rubra after 24 hrs by dilution method; format: functional, organism-based
[26] = tested on: Kluyveromyces marxianus; experiment: Antifungal activity against Kluyveromyces fragilis after 24 hrs by dilution method; format: functional, organism-based
[27] = tested on: Debaryomyces hansenii; experiment: Antifungal activity against Debaryomyces hansenii after 24 hrs by dilution method; format: functional, organism-based
[28] = tested on: Candida albicans; experiment: Antifungal activity against Candida albicans after 24 hrs by dilution method; format: functional, organism-based

## CC1(C)S[C@@H]2[C@H](NC(=O)[C@H](N)c3ccccc3)C(=O)N2[C@H]1C(=O)O [AMPICILLIN]
[1]
  inhibition zone (IZ): 21 mm
[2]
  inhibition zone (IZ): 12 mm
[3]
  inhibition zone (IZ): 10 mm
[4]
  inhibition zone (IZ): 14 mm
[5]
  inhibition zone (IZ): 12 mm
[6]
  inhibition zone (IZ): 16 mm
[7]
  inhibition zone (IZ): 32 mm
[8]
  inhibition zone (IZ): 16 mm
[9]
  inhibition zone (IZ): 12 mm

## CO/N=C(\C(=O)N[C@@H]1C(=O)N2C(C(=O)O)=C(COC(C)=O)CS[C@H]12)c1csc(N)n1 [CEFOTAXIME]
[1]
  inhibition zone (IZ): 11 mm
[2]
  inhibition zone (IZ): 10 mm
[3]
  inhibition zone (IZ): 54 mm
[4]
  inhibition zone (IZ): 13 mm
[5]
  inhibition zone (IZ): 16 mm
[6]
  inhibition zone (IZ): 18 mm
[7]
  inhibition zone (IZ): 32 mm
[8]
  inhibition zone (IZ): 12 mm
[9]
  inhibition zone (IZ): 14 mm

## Clc1ccccc1C(c1ccccc1)(c1ccccc1)n1ccnc1 [CLOTRIMAZOLE]
[10]
  inhibition zone (IZ): 16 mm
[11]
  inhibition zone (IZ): 18 mm
[12]
  inhibition zone (IZ): 18 mm
[13]
  inhibition zone (IZ): 15 mm
[14]
  inhibition zone (IZ): 22 mm

## CC(=O)N1CCN(c2ccc(OCC3COC(Cn4ccnc4)(c4ccc(Cl)cc4Cl)O3)cc2)CC1 (configuration not stated) [KETOCONAZOLE]
[10]
  inhibition zone (IZ): 22 mm
[11]
  inhibition zone (IZ): 14 mm
[12]
  inhibition zone (IZ): 16 mm
[13]
  inhibition zone (IZ): 21 mm
[14]
  inhibition zone (IZ): 24 mm

## CC1COc2c(N3CCN(C)CC3)c(F)cc3c(=O)c(C(=O)O)cn1c23 (configuration not stated) [OFLOXACIN]
[1]
  inhibition zone (IZ): 32 mm
[2]
  inhibition zone (IZ): 30 mm
[3]
  inhibition zone (IZ): 44 mm
[4]
  inhibition zone (IZ): 28 mm
[5]
  inhibition zone (IZ): 30 mm
[6]
  inhibition zone (IZ): 28 mm
[7]
  inhibition zone (IZ): 28 mm
[8]
  inhibition zone (IZ): 24 mm
[9]
  inhibition zone (IZ): 30 mm

## CC1(C)S[C@@H]2[C@H](NC(=O)Cc3ccccc3)C(=O)N2[C@H]1C(=O)O [PENICILLIN G]
[1]
  inhibition zone (IZ): 15 mm
[2]
  inhibition zone (IZ): 18 mm
[3]
  inhibition zone (IZ): 8 mm
[4]
  inhibition zone (IZ): 18 mm
[5]
  inhibition zone (IZ): 10 mm
[6]
  inhibition zone (IZ): 10 mm
[7]
  inhibition zone (IZ): 36 mm
[8]
  inhibition zone (IZ): 13 mm
[9]
  inhibition zone (IZ): 14 mm

## CN(C)[C@@H]1C(O)=C(C(N)=O)C(=O)[C@@]2(O)C(O)=C3C(=O)c4c(O)cccc4[C@@](C)(O)[C@H]3C[C@@H]12 [TETRACYCLINE]
[1]
  inhibition zone (IZ): 24 mm
[2]
  inhibition zone (IZ): 28 mm
[3]
  inhibition zone (IZ): 34 mm
[4]
  inhibition zone (IZ): 30 mm
[5]
  inhibition zone (IZ): 28 mm
[6]
  inhibition zone (IZ): 26 mm
[7]
  inhibition zone (IZ): 22 mm
[8]
  inhibition zone (IZ): 26 mm
[9]
  inhibition zone (IZ): 25 mm

## CN[C@H](CC(C)C)C(=O)N[C@H]1C(=O)N[C@@H](CC(N)=O)C(=O)N[C@H]2C(=O)N[C@H]3C(=O)N[C@H](C(=O)N[C@H](C(=O)O)c4cc(O)cc(O)c4-c4cc3ccc4O)[C@H](O)c3ccc(c(Cl)c3)Oc3cc2cc(c3O[C@@H]2O[C@H](CO)[C@@H](O)[C@H](O)[C@H]2O[C@H]2C[C@](C)(N)[C@H](O)[C@H](C)O2)Oc2ccc(cc2Cl)[C@H]1O [VANCOMYCIN]
[1]
  inhibition zone (IZ): 20 mm
[2]
  inhibition zone (IZ): 22 mm
[3]
  inhibition zone (IZ): 10 mm
[4]
  inhibition zone (IZ): 22 mm
[5]
  inhibition zone (IZ): 26 mm
[6]
  inhibition zone (IZ): 20 mm
[7]
  inhibition zone (IZ): 34 mm
[8]
  inhibition zone (IZ): 13 mm
[9]
  inhibition zone (IZ): 18 mm

## GENTAMICIN
[15]
  MIC: 12.5 µg/mL
[16]
  MIC: 6.25 µg/mL
[17]
  MIC: 25 µg/mL
[18]
  MIC: 6.25 µg/mL
[19]
  MIC: 12.5 µg/mL
[20]
  MIC: 6.25 µg/mL
[21]
  MIC: 25 µg/mL
[22]
  MIC: 6.25 µg/mL
[23]
  MIC: 6.25 µg/mL

## NYSTATIN
[24]
  MIC: 3.12 µg/mL
[10]
  inhibition zone (IZ): 18 mm
[25]
  MIC: 6.25 µg/mL
[26]
  MIC: 6.25 µg/mL
[11]
  inhibition zone (IZ): 16 mm
[27]
  MIC: 12.5 µg/mL
[28]
  MIC: 3.12 µg/mL
[12]
  inhibition zone (IZ): 18 mm
[14]
  inhibition zone (IZ): 21 mm
